Here are results for three substances from patent US20180185301A1, “PHARMACEUTICAL COMPOSITIONS COMPRISING POLYALKYLENE GLYCOL DERIVATIVES” (Symrise AG, priority 2015, published 2018).

The target of the assay is T1, PAR-2 (Homo sapiens, UniProt P55085).
T1 construct: human embryonic kidney 293 cells (HEK293) endogenously expressing PAR-2; endogenous in cells; host or cells: HEK293
T1 sequence (P55085 26-397): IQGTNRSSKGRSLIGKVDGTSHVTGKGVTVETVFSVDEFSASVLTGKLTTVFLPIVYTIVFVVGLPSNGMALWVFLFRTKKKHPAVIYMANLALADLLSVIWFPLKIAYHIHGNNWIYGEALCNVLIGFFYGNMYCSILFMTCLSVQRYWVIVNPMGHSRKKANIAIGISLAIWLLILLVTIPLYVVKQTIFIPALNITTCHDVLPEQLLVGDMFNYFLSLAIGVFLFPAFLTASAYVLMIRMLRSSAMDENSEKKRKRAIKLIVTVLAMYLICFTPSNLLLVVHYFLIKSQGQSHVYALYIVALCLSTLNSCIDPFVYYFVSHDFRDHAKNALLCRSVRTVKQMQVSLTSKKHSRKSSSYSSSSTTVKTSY
Description: In vitro PAR-2 assay (trypsin-evoked calcium signal, Fluo-4). Conditions: for IC50: HEK293 cells endogenously expressing PAR-2, in the presence of 4 nM trypsin, calcium imaging. In kind it is cell-based. On the procedure:
Assay Principle: A cellular in vitro assay was developed with human embryonic kidney 293 cells (HEK293) endogenously expressing PAR-2. The PAR-2 activating protease trypsin (EC50: ˜1 nM) was used as an agonistic stimulus with subsequent Fluo-4 dependent intracellular calcium detection (calcium imaging).
A cell-based calcium assay was applied for the identification of PAR-2 antagonistic effects of polyethylene glycol esters and polyethylene glycol ethers. Functional modulation of PAR-2 by the tested compounds was measured and quantified using the calcium sensitive fluorescent probe Fluo-4 AM on a fluorescence microplate reader. Activation of PAR-2 by an agonist (trypsin) led to an increase in the intracellular calcium concentration and thus an increase in fluorescence intensity.
Human embryonic kidney 293 cells (HEK293) endogenously expressing PAR-2 were cultured in DMEM (high glucose) supplemented with tetracycline-free FCS (10% v/v), L-glutamine (4 mM), blasticidin (15 μg/ml), zeocin (100 μg/ml) and puromycin (2 μg/ml) in a water-saturated atmosphere at 37° C. and 5% CO2.
Cells were seeded onto 96-well clear-bottom black-walled assay plates at a density of 45.000 cells per well in 100 μl of cell culture medium. Intracellular calcium increase in the living cells due to receptor activation was monitored 24 h later using the calcium sensitive fluorescent probe Fluo-4 AM on a fluorescence microplate reader (FlexStation® system, Molecular Devices). […]
Medium was replaced with 150 μl KH buffer supplemented with sulfinpyrazone (250 μM). Subsequently, 50 μl KH buffer supplemented with the screening compounds or control substances were added and the cells were incubated for 10 min. under assay conditions in the microplate reader. Changes in fluorescence were recorded at 37° C. after addition of 50 μl KH buffer supplemented with the PAR-2 agonist trypsin (final concentration of 4 nM under measurement conditions).
Calcium mobilization was quantified as the change of peak fluorescence (ΔF) over the baseline level (F). The data was analysed with the software of the microplate reader. […]

For PEG-5 Isononanoate, the IC50 is 100 µM.

Turning to PEG-9 Tridecylether, the half-maximal inhibitory concentration (IC50) was found to be 65 µM. As to trypsin [reference compound], the concentration for a half-maximal effect (EC50) (HEK293 cells, Fluo-4 calcium detection, read-out: EC50 of PAR-2 activating protease (agonistic stimulus)) was approximately 0.001 µM.

The IC50 is the concentration that gives 50% inhibition. A word on the EC50: it is the concentration that produces a half-maximal response.
